Results taken from PubChem BioAssay (NCI).
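Test compounds were applied to cells in 96-well plates for 48 hours at 5 doses. At the GI50, growth is halved. TGI is the concentration that stops growth completely.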

Experiments:
Test in all cases: growth of human tumour cells (NCI), 48 h
LOX IMVI melanoma = system: LOX IMVI melanoma
SK-OV-3 ovarian = system: SK-OV-3 ovarian
SF-268 CNS = system: SF-268 CNS
K-562 leukemia = system: K-562 leukemia
SF-295 CNS = system: SF-295 CNS
BT-549 breast = system: BT-549 breast
MOLT-4 leukemia = system: MOLT-4 leukemia
OVCAR-4 ovarian = system: OVCAR-4 ovarian
EKVX NSCLC = system: EKVX NSCLC
NCI-H23 lung = system: NCI-H23 lung

SMILES	GI50 (LOX IMVI melanoma) [nM]	TGI (LOX IMVI melanoma) [µM]	GI50 (SK-OV-3 ovarian) [µM]	TGI (SK-OV-3 ovarian) [µM]	GI50 (SF-268 CNS) [µM]	TGI (SF-268 CNS) [µM]	GI50 (K-562 leukemia) [nM]	TGI (K-562 leukemia) [µM]	GI50 (SF-295 CNS) [µM]	TGI (SF-295 CNS) [µM]	GI50 (BT-549 breast) [µM]	TGI (BT-549 breast) [µM]	GI50 (MOLT-4 leukemia) [µM]	TGI (MOLT-4 leukemia) [µM]	GI50 (OVCAR-4 ovarian) [µM]	TGI (OVCAR-4 ovarian) [µM]	GI50 (EKVX NSCLC) [µM]	TGI (EKVX NSCLC) [µM]	GI50 (NCI-H23 lung) [µM]	TGI (NCI-H23 lung) [µM]
C=C1C(=O)O[C@H]2[C@H]1CC/C(COC(=O)NCc1c[nH]c3ccccc13)=C\CC[C@@]1(C)O[C@@H]21	1400	2.87	13.7	26.6	10.4	22.6	1820	12.6	12.1	24.7	1.98	6.3	2.71	9.13	4.5	18.6	2.23	8.84	8.37	24.5
O=C(/C=C/c1ccc(Cl)cc1)c1ccccc(=O)c1O	–	13	–	16.6	–	36.2	–	12.1	–	16.3	–	13.5	–	16.2	–	17.9	–	18.3	–	18.1
COc1ccc(C=Nc2c(C(=O)Nc3cccc(Cl)c3C)sc3nc(C)c(C(=O)/C=C/c4ccc(OC)cc4)cc23)cc1	666	> 50	0.958	> 50	1.6	> 50	259	> 50	0.362	8.43	0.787	> 38.5	3.68	> 50	–	> 50	2.24	> 50	0.917	17.1
COC(=O)c1ccc2c(c1)C(=O)c1c-2n(CCCCl)c(=O)c2cc([N+](=O)[O-])ccc12	40900	> 100	> 100	> 100	42.2	> 100	59000	> 100	52	> 100	44.4	> 100	26	> 100	> 100	> 100	> 100	> 100	94.6	> 100
CCCCOC(=O)c1ccc(N)cc1	30800	> 100	> 100	> 100	71.1	> 100	6660	> 100	19	89.1	77.6	> 100	> 100	> 100	> 100	> 100	39.7	> 100	> 100	> 100
CSC(=NC#N)S/C=C/C(=O)c1ccccc1	31000	> 100	> 100	> 100	43.8	> 100	32700	> 100	30.5	> 100	29.2	70.4	22.6	> 100	> 100	> 100	86.4	> 100	23.8	58.8
CN(C)CCCN(CCC1CCCCC1)CCC1CCCCC1	1470	2.91	7.68	21.5	5.5	18	591	–	1.95	4.51	7.74	22.2	1.85	7.93	7.41	27.7	5.68	18.8	4.8	17.9
O=c1oc2ccc(I)cc2c(=O)n1-c1ccc(F)cc1F	2510	10.9	1.16	4.17	2.86	27.1	2560	> 100	1.87	3.74	1.91	4.98	2.39	6.88	2.07	8.97	1.98	8.1	2.14	7.94
CO[C@H]1C=CO[C@@]2(C)Oc3c(C)c(O)c4c(O)c(c(CN5CCN(C)CC5)c(O)c4c3C2=O)NC(=O)/C(C)=C\C=C[C@H](C)[C@H](O)C(C)[C@@H](O)C(C)[C@H](OC(C)=O)[C@@H]1C (stereo partly drawn)	–	> 71.9	–	> 100	–	> 100	–	> 100	–	> 100	–	> 100	–	49.1	–	> 100	–	> 100	–	> 77.6
Cc1c2ccn(O)cc2c(C)c2c1nc1ccccc12	–	17.1	–	39.6	–	27.5	–	> 81.4	–	23.4	–	53.8	–	16.8	–	> 100	–	> 71.3	–	30.2
CC1=C2CC(C)(C)/C=C\C(=O)/C(C)=C\C3=C[C@H](C)C[C@]3(O2)C1=O	–	1.64	–	24.6	–	18.4	–	14.4	–	22	–	1.5	–	1.53	–	5.28	–	6.15	–	3.76
